Entries after “also recorded” stand apart in the source; their conditions may differ. Read-outs that look alike come from different tables or passages of the source.
What was measured:
recombinant SjTGR = target: T1, recombinant SjTGR (Schistosoma japonicum, UniProt B5THG7); experiment: Inhibition of TrxR activity of recombinant SjTGR (DTNB assay); type: biochemical; settings: 50 nM SjTGR, 1 mM NADPH, 15 min preincubation, DTNB reduction; for IC50: read-out: IC50 of SjTGR
T1 sequence (B5THG7 1-596): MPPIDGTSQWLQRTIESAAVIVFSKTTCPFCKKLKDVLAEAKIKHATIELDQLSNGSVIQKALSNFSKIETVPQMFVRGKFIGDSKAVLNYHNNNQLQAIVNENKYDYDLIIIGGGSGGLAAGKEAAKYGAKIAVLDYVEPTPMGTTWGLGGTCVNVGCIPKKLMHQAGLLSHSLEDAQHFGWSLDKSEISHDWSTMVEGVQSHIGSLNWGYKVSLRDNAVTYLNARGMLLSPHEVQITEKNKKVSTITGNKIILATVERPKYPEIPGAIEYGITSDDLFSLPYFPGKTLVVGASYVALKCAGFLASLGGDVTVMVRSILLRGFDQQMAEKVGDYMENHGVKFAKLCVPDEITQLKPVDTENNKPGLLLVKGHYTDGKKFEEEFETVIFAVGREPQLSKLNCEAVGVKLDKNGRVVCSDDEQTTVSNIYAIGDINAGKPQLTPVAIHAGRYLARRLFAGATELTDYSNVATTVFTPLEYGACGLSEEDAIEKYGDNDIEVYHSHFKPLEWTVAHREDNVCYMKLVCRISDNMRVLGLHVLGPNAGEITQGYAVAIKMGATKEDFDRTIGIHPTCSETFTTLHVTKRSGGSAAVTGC
How it was run: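 SjTGR (50 nM) preincubated 15 min at room temperature with 1 mM NADPH and oxadiazole-2-oxides (2-20 μM). Reaction started with potassium phosphate pH 7.4, 10 mM EDTA, 100 μM NADPH, 3 mM DTNB; A412 increase followed over first 2 min, triplicates.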

adult S. japonicum = experiment: microbe, parasite or virus in culture; type: cell-based; settings: for killing at 25 µM / killing at 50 µM / killing at 100 µM / Killing activity 24hr / Killing activity 48hr / Killing activity 72hr: adult worms
How it was run: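 Adult worm pairs recovered by portal perfusion from ICR mice 35 days after infection with 50 cercariae, cultured in RPMI 1640 (pH 7.5, 20 mM HEPES, 10% FBS) at 37 °C, 5% CO2. Oxadiazole-2-oxides at 10, 25, 50, 100 μM; motility and survival scored microscopically at 24, 48, 72 h, death being no movement over 2 min; three independent experiments averaged.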

[1] = Schistosoma japonicum, 24 h, read-out: Mortality of adult worms
[2] = Schistosoma japonicum, 25 μM, 48 h, read-out: Killing activity 48hr
[3] = Schistosoma japonicum, 25 μM, 72 h, read-out: Killing activity 72hr
[4] = Schistosoma japonicum, 24 h, read-out: Killing activity 24hr
[5] = Schistosoma japonicum, 48 h, read-out: Killing activity 48hr
[6] = Schistosoma japonicum, 72 h, read-out: Killing activity 72hr
[7] = Schistosoma japonicum, 25 μM, 24 h, read-out: Killing activity 24hr

Row | SMILES | IC50 (recombinant SjTGR) [µM] | mortality at 50 µM (adult S. japonicum; [1]) [%] | killing at 25 µM (adult S. japonicum; [2]) [%] | killing at 25 µM (adult S. japonicum; [3]) [%] | killing at 50 µM (adult S. japonicum; [4]) [%] | killing at 50 µM (adult S. japonicum; [5]) [%] | killing at 50 µM (adult S. japonicum; [6]) [%] | killing at 100 µM (adult S. japonicum; [4]) [%] | killing at 100 µM (adult S. japonicum; [5]) [%] | killing at 100 µM (adult S. japonicum; [6]) [%] | Killing activity 24hr (adult S. japonicum; 10 μM, 24 h) | Killing activity 48hr (adult S. japonicum; 10 μM, 48 h) | Killing activity 72hr (adult S. japonicum; 10 μM, 72 h) [%D] | Killing activity 24hr (adult S. japonicum; 25 μM, 24 h) | killing at 25 µM (adult S. japonicum; [7]) [%] | IC50 of SjTGR (recombinant SjTGR) | mortality at 25 µM (adult S. japonicum; [1]) [%] | mortality at 100 µM (adult S. japonicum; Schistosoma japonicum, read-out: Mortality of adult worms) [%]
1 | N#Cc1c(-c2ccc(OCCCBr)cc2)no[n+]1[O-] [Compound 13] | 1.6 | 100 | 100 | 100 | 100 | 100 | 100 | 100 | 100 | 100 | sluggish | 90.0%D | 100 | sluggish | – | – | – | –
2 | N#Cc1c(-c2ccc(OC/C=C/CBr)cc2)no[n+]1[O-] [Compound 16] | 0.5 | 100 | 75 | 100 | 100 | 100 | 100 | 100 | 100 | 100 | n.e. | 50.0%D | 80.0 | – | 50 | – | – | –
3 | N#Cc1c(-c2ccc(OCc3ccccc3)cc2)no[n+]1[O-] [Compound 19] | > 20 | – | 100 | 100 | 100 | 100 | 100 | 100 | 100 | 100 | 80.0%D | 100%D | 100 | – | 100 | did not inhibit; also recorded: neither did they inhibit the SjTGR activity | > 75 | –
4 | C#CCOc1ccc(-c2no[n+]([O-])c2C#N)cc1 [Compound 20] | 3.3 | – | 100 | 100 | 70 | 100 | 100 | 100 | 100 | 100 | n.e. | 50.0%D | 75.0 | – | 50 | – | – | 100
5 | N#Cc1c(-c2ccc(COc3ccccc3)cc2)no[n+]1[O-] [Compound 23] | > 20 | – | 100 | 100 | 100 | 100 | 100 | 100 | 100 | 100 | 62.5%D | 87.5%D | 100 | – | 100 | did not inhibit | > 75 | –
6 | N#Cc1c(-c2ccc(COc3ccc(C=O)cc3)cc2)no[n+]1[O-] [Compound 26] | > 20 | – | 100 | 100 | 100 | 100 | 100 | 100 | 100 | 100 | n.e. | n.e. | 16.7 | – | 85.7 | did not inhibit; also recorded: neither did they inhibit the SjTGR activity | > 75 | –
7 | Cc1ccc2cccc(OCc3ccc(-c4no[n+]([O-])c4C#N)cc3)c2n1 [Compound 28] | > 20 | – | 100 | 100 | 100 | 100 | 100 | 100 | 100 | 100 | 57.1%D | 57.1%D | 71.4 | – | 100 | did not inhibit | > 75 | –

— article PMC4721062, “Oxadiazole-2-oxides may have other functional targets, in addition to SjTGR, through which they cause mortality in Schistosoma japonicum” (Parasites & Vectors, 2016)
